Results taken from ChEMBL document CHEMBL5052835, “Slc26a3 inhibitors and use thereof” (2021).
Calls of active or inactive are those of the source. No cut-off for these calls is given here.

Columns and labels:
[1] = biological target: T1, Chloride anion exchanger (Mus musculus, UniProt Q9WVC8); test: Inhibition of mouse Slc26a3 transfected in rat FRT cells preincubated with forskolin, 8-Br-cGMP and PMA and measured by fluorescence assay; format: cell-based
T1 sequence (Q9WVC8 whole entry): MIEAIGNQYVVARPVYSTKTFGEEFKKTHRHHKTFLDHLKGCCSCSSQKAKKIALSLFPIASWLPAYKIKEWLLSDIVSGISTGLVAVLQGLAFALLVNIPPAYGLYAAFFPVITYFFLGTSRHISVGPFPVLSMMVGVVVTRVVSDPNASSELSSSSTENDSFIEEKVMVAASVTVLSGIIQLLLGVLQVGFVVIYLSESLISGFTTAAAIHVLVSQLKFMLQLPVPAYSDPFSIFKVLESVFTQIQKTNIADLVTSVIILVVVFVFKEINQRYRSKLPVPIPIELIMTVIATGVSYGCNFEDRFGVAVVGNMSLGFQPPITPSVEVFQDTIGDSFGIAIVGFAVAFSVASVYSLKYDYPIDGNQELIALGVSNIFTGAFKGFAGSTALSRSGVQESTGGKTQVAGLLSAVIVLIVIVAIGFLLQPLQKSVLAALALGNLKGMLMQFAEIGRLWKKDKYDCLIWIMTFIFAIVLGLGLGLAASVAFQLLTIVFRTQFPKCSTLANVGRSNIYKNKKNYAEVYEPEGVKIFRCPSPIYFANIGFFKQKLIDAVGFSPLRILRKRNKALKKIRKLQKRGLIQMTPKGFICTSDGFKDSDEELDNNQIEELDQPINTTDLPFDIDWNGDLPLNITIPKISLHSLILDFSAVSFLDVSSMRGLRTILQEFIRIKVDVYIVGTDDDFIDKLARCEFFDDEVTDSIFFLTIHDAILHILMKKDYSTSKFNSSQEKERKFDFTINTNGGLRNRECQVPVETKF

[2] = test system: Mus musculus; test: In vivo inhibition of […] in loperamide-induced constipation model of female CD-1 mouse at 5 mg/kg, po assessed as reduction in stool weight; format: functional, organism-based
[3] = test system: Mus musculus; test: In vivo inhibition of […] in loperamide-induced constipation model of female CD-1 mouse at 5 mg/kg, po assessed as reduction in pellet number; format: functional, organism-based
[4] = test system: Mus musculus; test: In vivo inhibition of […] in loperamide-induced constipation model of female CD-1 mouse at 5 mg/kg, po assessed as reduction in stool water content; format: functional, organism-based
[5] = test system: Colon; test: Inhibition of fluid absorption in distal colonic loop isolated from female CD-1 mouse at 10 uM assessed as effect on reduction in loop weight/length ratio; format: functional, tissue-based
[6] = test system: Mus musculus; test: In vivo inhibition of slc26a3 in loperamide-induced constipation model of female CD-1 mouse at 5 mg/kg, po assessed as reduction in pellet number; format: functional, organism-based
[7] = test system: Mus musculus; test: In vivo inhibition of slc26a3 in loperamide-induced constipation model of female CD-1 mouse at 5 mg/kg, po assessed as reduction in stool weight; format: functional, organism-based
[8] = test system: Mus musculus; test: In vivo inhibition of slc26a3 in loperamide-induced constipation model of female CD-1 mouse at 5 mg/kg, po assessed as reduction in stool water content; format: functional, organism-based
[9] = test system: Mus musculus; test: In vivo inhibition of slc26a3 in loperamide-induced constipation model of female CD-1 mouse at 1 to 10 mg/kg, po assessed as reduction in pellet number; format: functional, organism-based; conditions: dose 1-10 mg/kg
[10] = organism: Mus musculus; test: Inhibition of oxalate absorption in high oxalate and low calcium diet-induced oxalate nephropathy model of mouse assessed as normalization of creatinine level; format: functional, organism-based
[11] = test system: Mus musculus; test: In vivo inhibition of slc26a3 in loperamide-induced constipation model of female CD-1 mouse at 1 to 10 mg/kg, po assessed as reduction in stool weight; format: functional, organism-based; conditions: dose 1-10 mg/kg
[12] = test system: Mus musculus; test: In vivo inhibition of slc26a3 in loperamide-induced constipation model of female CD-1 mouse at 1 to 10 mg/kg, po assessed as reduction in stool water content; format: functional, organism-based; conditions: dose 1-10 mg/kg
[13] = Toxicity in loperamide-induced constipation model of female CD-1 mouse at 10 mg/kg, po assessed as effect on stool parameters; format: organism-based; conditions: in vivo
[14] = Toxicity in loperamide-induced constipation model of female CD-1 mouse at 10 mg/kg, po assessed as diarrhea; format: organism-based; conditions: in vivo
[15] = test system: Mus musculus; test: Inhibition of oxalate absorption in sodium oxalate-induced acute hyperoxaluria mouse model at 10 mg/kg, ip; format: functional, organism-based

Row | SMILES | IC50 ([1]; read-out: IC50) [nM] | further results
1 | CCc1ccc(NC(=O)CSc2nccn2-c2cccc(C)c2C)cc1 | 3500 | –
2 | COc1ccc(-n2ccnc2SCC(=O)Nc2ccc(Br)cc2)cc1 | 1900 | –
3 | CCc1ccc(NC(=O)CSc2nccn2-c2ccc(Cl)cc2)cc1 | 5700 | –
4 | O=C(CSc1nccn1-c1cccc(Cl)c1)Nc1ccc(Cl)c(Cl)c1 | 2900 | –
5 | O=C(CSc1nccn1-c1ccc(Cl)cc1)Nc1ccc([N+](=O)[O-])cc1 | 7400 | –
6 | Cc1ccc(NC(=O)CSc2nccn2-c2ccccc2)cc1Cl | 1500 | –
7 | CCCCCOc1ccc2c(C)c(CC(=O)O)c(=O)oc2c1C | 1200 | –
8 | Cc1cccc(-n2ccnc2SCC(=O)Nc2ccc(Br)cc2)c1 | 6400 | –
9 | CN1Cc2c(Cl)cc(Cl)cc2[C@H](c2cccc(S(=O)(=O)NCCOCCOCCNC(=O)NCCCCNC(=O)NCCOCCOCCNS(=O)(=O)c3cccc([C@@H]4CN(C)Cc5c(Cl)cc(Cl)cc54)c3)c2)C1 | – | inhibition [2]: Active; inhibition [3]: Active; inhibition [4]: Active; inhibition [5]: inactive
10 | O=C(CSc1nccn1-c1ccc(F)cc1)Nc1ccc(Cl)c(Cl)c1 | 2600 | –
11 | Cc1c(CC(=O)O)c(=O)oc2c(C)c(OCc3cccc(Cl)c3)ccc12 | 200 | –
12 | Cc1c(CCC(=O)O)c(=O)oc2c(C)c(OCc3ccc(F)cc3)ccc12 | – | IC50 ([1]; frt): Not Active
13 | O=C(CSc1nccn1-c1ccc(Cl)cc1)Nc1cccc(C(F)(F)F)c1 | 12000 | –
14 | O=C(CSc1nccn1-c1ccc(Cl)cc1)Nc1ccc(Cl)cc1 | 1700 | –
15 | Cc1c(CC(=O)O)c(=O)oc2c(C)c(OCc3cccc(C(F)(F)F)c3)ccc12 | – | inhibition [6]: Active; inhibition [7]: Active; inhibition [8]: Active
16 | Cc1cccc(COc2ccc3c(C)c(CC(=O)O)c(=O)oc3c2C)c1 | 480 | –
17 | Cc1cc(C)cc(-n2ccnc2SCC(=O)Nc2ccc(C)c(Cl)c2)c1 | 2100 | –
18 | Cc1ccc(NC(=O)CSc2nccn2-c2ccc(Cl)cc2)cc1 | 1600 | –

Row | SMILES | IC50 ([1]; read-out: IC50) [nM] | further results
19 | CCc1ccc(NC(=O)CSc2nccn2-c2ccc(OC)cc2)cc1 | 6500 | –
20 | Cc1c(CC(=O)O)c(=O)oc2c(C)c(OCc3ccc(C(C)(C)C)cc3)ccc12 | 4600 | –
21 | Cc1cc(C)cc(-n2ccnc2SCC(=O)Nc2ccc(Cl)cc2)c1 | 4600 | –
22 | Cc1c(CC(=O)O)c(=O)oc2c(C)c(OCc3ccccc3F)ccc12 | 510 | –
23 | COC(=O)CCc1c(C)c2ccc(OCc3ccc(C(C)(C)C)cc3)c(C)c2oc1=O | – | IC50 ([1]; frt): Not Active
24 | Cc1cccc(-n2ccnc2SCC(=O)Nc2ccc(Cl)cc2)c1 | 6200 | –
25 | O=C(CSc1nccn1-c1ccc(Cl)cc1)Nc1ccc(Br)cc1 | 1800 | –
26 | Cc1ccc(NC(=O)CSc2nccn2-c2ccc(Cl)cc2)cc1Cl | 11000 | –
27 | Cc1c(CC(=O)O)c(=O)oc2c(C)c(OCc3cccc(I)c3)ccc12 | – | inhibition [9]: Active; inhibition [10]: Active; inhibition [11]: Active; inhibition [12]: Active; Activity [13]: Non-Toxic; Activity [14]: Non-Toxic; inhibition [15]: Active
28 | Cc1c(CC(=O)O)c(=O)oc2c(C)c(OCc3cccc(F)c3)ccc12 | 840 | –
29 | Cc1cc(C)cc(COc2ccc3c(C)c(CC(=O)O)c(=O)oc3c2C)c1 | 540 | –
30 | Cc1cc(C)cc(-n2ccnc2SCC(=O)Nc2ccc(Cl)c(Cl)c2)c1 | 2500 | –
31 | COc1cccc(-n2ccnc2SCC(=O)Nc2ccc(C)cc2)c1 | 7100 | –
32 | CCOc1ccc(-n2ccnc2SCC(=O)Nc2ccc(Cl)cc2)cc1 | 1700 | –
33 | COC(=O)CCc1c(C)c2ccc(OCc3cccc(OC)c3)c(C)c2oc1=O | – | IC50 ([1]; frt): Not Active
34 | Cc1ccc2ccccc2c1COc1ccc2c(C)c(CCC(=O)O)c(=O)oc2c1C | – | IC50 ([1]; frt): Not Active
35 | O=C(CSc1nccn1-c1cccc(Cl)c1)Nc1ccc(Cl)cc1 | 2200 | –
